Experimental findings from patent publication US7189756B2, “Pyrrolidine derivatives” (Hoffman-La Roche Inc., priority 2000, dated 2007) are described below.

`CCOC(=O)c1nnn(C[C@@H]2C[C@@H](S)CN2S(=O)(=O)c2ccc3ccccc3c2)c1C`: the melting point (commonly the temperature of the solid-liquid transition) stood at 95 °C.

Consider `Cc1c(-c2ccccc2)nnn1C[C@@H]1C[C@@H](S)CN1S(=O)(=O)c1ccc2ccccc2c1`, for which the melting point is 146 °C.

As for `Nc1c(-c2ccccc2)nnn1C[C@@H]1C[C@@H](S)CN1S(=O)(=O)c1ccc2ccccc2c1`, the melting point is 70 °C.

Turning to `CS(=O)(=O)N1C[C@H](S)C[C@H]1Cn1nnc(C(N)=O)c1N`, the melting point amounted to 189 °C.

`CS(=O)(=O)N1C[C@H](S)C[C@H]1COCC1CCCCC1` yielded a melting point of 68 to 69 °C.

Compound `O=C(Nc1ccccc1F)N1C[C@H](S)C[C@H]1CNCc1cc(F)ccc1F` had a melting point of 126 °C.
